# Patent publication US20240180881A1, “METHODS FOR DECREASING RESISTANCE TO CHEMOTHERAPY” (National Institute of Immunology, priority 2022, published 2024)
# Counter-ions that a name gives are not always drawn.
# Biological target: T1, BLM-RAD54 interaction (BLM F2 and N-RAD54 F1) (Homo sapiens, UniProt Q92698)
# T1 construct: expressed in transfected cells; host or cells: HEK293T
# T1 sequence (Q92698 1-212): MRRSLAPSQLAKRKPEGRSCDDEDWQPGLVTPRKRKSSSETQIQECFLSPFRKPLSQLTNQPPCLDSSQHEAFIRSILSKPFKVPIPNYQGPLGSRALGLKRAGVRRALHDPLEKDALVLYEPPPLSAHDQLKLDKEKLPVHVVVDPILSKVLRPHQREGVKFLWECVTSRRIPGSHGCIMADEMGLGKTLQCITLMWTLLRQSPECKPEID
# Assay: Renilla luciferase-based protein complementation assay (PCA)
# Format: cell-based
# Details: disruption of BLM F2 / N-RAD54 F1 interaction, HEK293T cells, 1 nM to 100 μM; read-out: EC50
# Protocol: Specifically, N-RAD54-F1, C-RAD54-F1, BLM-F1 and BLM-F2 were transfected in HEK293T. Forty-eight hours post-transfection, Renilla luciferase-based PCA were carried out with the indicated combination of the expressed proteins. The experiment was repeated three times. Mean±S.D.
# Using the Renilla luciferase-based protein complementation assay described earlier, 1280 FDA/EMA approved small molecules present in Prestwick chemical library were screened for their ability to disrupt BLM-RAD54 interaction. Each of the small molecules was incubated with HEK293T cells expressing BLM-F2 and N-RAD54-F1. Compared to cells expressing only BLM-F2 and N-RAD54-F1, the decrease in Renilla luciferase intensity in presence of each small molecule was monitored. Percentage disruption of the interaction between BLM F2 and N-RAD54 F1 was plotted in form of heatmap. The disruption of the BLM-RAD54 interaction was determined by a decrease in the Renilla luciferase activity as compared to control untreated cells.
# The percentage disruption of the interaction between BLM F2 and N-RAD54 F1 was plotted as a non-linear regression line. The data was from three independent experiments.
# Renilla Luciferase (Rlu) based Protein complementation assay was carried out as described in (Stefan et al., 2007). For preliminary screening of the Prestwick Chemical Library (containing 1280 FDA/EMA approved small molecules), HEK293T cells were seeded in the 6-well plates a day prior to the transfection. Next day the cells were transfected by 2 μg each of pcDNA3.1 N-RAD54 F1, pcDNA3.1 C-RAD54 F1, pcDNA3.1 BLM F1, pcDNA3.1 BLM F2 plasmids (alone or in different combinations) using Lipofectamine 2000 (according to the manufacturer's protocol). 36 hours post-transfection, approximately […] cells were seeded in a 96-well plate and incubated at 37° C. for 2 hour with or without 10 μM of the 1280 small molecules present in the library. 10 μM of Coenleterazine h was added into each well and Rluc activity was monitored for the first 10 seconds in Varioskan Microplate Reader (Thermo Fisher Scientific). The validation screen was performed with 17 small molecules at 100 μM, 10 μM, 1 μM, 100 nM, 10 nM and 1 nM concentrations. The percentage reduction in the protein-protein interaction was then calculated as compared to the control wells (without any small molecule).
row,SMILES,EC50 [nM]
1,"Nc1nc2nn[nH]c2c(=O)[nH]1 [C1, Azaguanine-8]",22.3 ± 1.98
2,"NC(=O)NC1NC(=O)NC1=O (stereo not drawn) [C2, Allantoin]",17.9 ± 1.82
3,"Cc1ncc([N+](=O)[O-])n1CCO [C8, Metronidazole]",20.5 ± 2.61

# These reach a lower EC50. Values come first.
row,EC50 [nM],SMILES
1,3.01 ± 0.812,"CN(C)C(=N)N=C(N)N [C4, Metformin hydrochloride]"
2,5.38 ± 2.17,"COc1ccc(CC2c3cc(OC)c(OC)cc3CC[N+]2(C)CCC(=O)OCCCCCOC(=O)CC[N+]2(C)CCc3cc(OC)c(OC)cc3C2Cc2ccc(OC)c(OC)c2)cc1OC (stereo not drawn) [C5, Atracurum besylate]"
3,6.26 ± 2,"C[C@]12C=CC(=O)C=C1CC[C@@H]1[C@@H]2C(=O)C[C@@]2(C)[C@H]1CC[C@]2(O)C(=O)CO [C6, Prednisone]"
